How the values were obtained:
[1] = test system: Wnt pathway (Sp5-Luc reporter, TCF/LEF binding sites) in SW480 colon carcinoma cells; assay: Screening assay for Wnt activity: Sp5-Luc reporter gene assay; type: cell-based, human; conditions: Homo sapiens; for EC50: Sp5-Luc reporter, SW480 cells, 36 to 48 hours; for inhibition at 10 µM: SW480, read-out: percent inhibition at 10 μM;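 for all read-outs here: firefly luciferase luminescence read in stably transduced SW480 cells carrying the Sp5 promoter reporter with eight TCF/LEF sites, compounds given in 0.1% DMSO final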
Method: The screening assay for Wnt activity is described as follows.
Following incubation, 15 μl of BriteLite Plus luminescence reagent (Perkin Elmer) was added to each well of the 384-well assay plates. The plates were placed on an orbital shaker for 2 min and then luminescence was quantified using the Envision (Perkin Elmer) plate reader.

[2] = biological target: recombinant DYRK1A kinase (Homo sapiens (Human), UniProt Q13627); assay: DYRK1A kinase assay (Ser/Thr 18 peptide Z-lyte FRET); type: biochemical; conditions: 30 μM ATP, 1 h room temperature;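 note: Read-out is the coumarin to fluorescein emission ratio, referenced to unphosphorylated (0%) and phosphorylated (100%) Ser/Thr 18 peptide controls, values from dose-response curves by non-linear regression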
recombinant GSK3β kinase = recombinant GSK3β kinase (Homo sapiens (Human), UniProt P49841); assay: GSK3β kinase assay (Ser/Thr 09 peptide Z-lyte FRET); type: biochemical; conditions: 46 μM ATP, 1 h room temperature;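 note: kinase activity read as coumarin to fluorescein emission ratio, 11-point threefold dilutions from 10 µM to 0.0003 µM in duplicate, unphosphorylated and phosphorylated peptide as 0% and 100% controls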
Sequence of recombinant GSK3β kinase (P49841 whole entry): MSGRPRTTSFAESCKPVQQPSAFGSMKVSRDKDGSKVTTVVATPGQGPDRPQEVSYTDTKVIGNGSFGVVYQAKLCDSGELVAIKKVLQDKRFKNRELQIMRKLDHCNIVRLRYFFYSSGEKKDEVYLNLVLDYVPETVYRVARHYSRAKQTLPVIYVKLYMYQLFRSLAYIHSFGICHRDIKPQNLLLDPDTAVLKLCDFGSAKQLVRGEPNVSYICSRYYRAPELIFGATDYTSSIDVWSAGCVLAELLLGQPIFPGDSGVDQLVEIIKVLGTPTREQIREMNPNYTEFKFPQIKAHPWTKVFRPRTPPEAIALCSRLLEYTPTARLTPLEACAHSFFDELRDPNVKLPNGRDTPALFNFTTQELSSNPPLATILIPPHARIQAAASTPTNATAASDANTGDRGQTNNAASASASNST

[3] = test system: Tau phosphorylation at Ser396 (pSer396); assay: Tau phosphorylation assay (pSer396 ELISA / western blot) in SH-SY5Y cells; type: cell-based, human; conditions: Homo sapiens; SH-SY5Y cells, overnight (16-18 h) exposure; read-out: pSer396 Tau EC50;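 note: EC50 for reduction of Tau pSer396 in lysed cells, measured by colorimetric ELISA or chemiluminescent western blot, both using the same pSer396 antibody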
[4] = test system: SW480 colon carcinoma cells; assay: Cell viability assay (CellTiter-Glo); type: cell-based, human; conditions: Homo sapiens; for EC50: 96 h, SW480 cells, CellTiter-Glo, four days incubation; for inhibition at 10 µM: SW480, read-out: percent inhibition at 10 μM
[5] = test system: α-smooth muscle actin (αSMA) positive LL29 cells; assay: Inhibition of fibrotic process: αSMA in TGF-β1 treated primary human fibroblasts from IPF patients; type: cell-based; conditions: Homo sapiens, Fibroblast; for EC50: 96 h, Table 8, LL29 fibroblasts from IPF patients, TGF-β1 20 ng/mL, 4 days, dose-response 10 μM to 0.94 nM; for inhibition at 10 µM: read-out: percent value in parentheses beside EC50 >10 μM;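 for all read-outs here: controls were TGF-β1 stimulated wells with DMSO vehicle (positive) and cells given DMSO alone (negative), cultured in F12 medium with 1% fetal bovine serum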
IL-6 = IL-6 inhibition in LPS-stimulated human peripheral blood mononuclear cells (HTRF); type: cell-based; conditions: Homo sapiens, PBMC; for EC50: Table 9, huPBMCs, LPS 50 ng/mL, 22 hours, dose-response starting from 10 μM; for inhibition at 10 µM: read-out: percent value in parentheses beside EC50 >10 μM;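 for all read-outs here: IL-6 detected by HTRF with an XL665- and Cryptate-labelled anti-IL-6 antibody pair, samples run in duplicate, EC50 obtained from a four-parameter Levenberg-Marquardt curve fit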
Method: After 22 hour incubation, a mixture of anti-IL6 XL665 and anti-IL-6 Cryptate diluted in reconstitution buffer (Catalog #62IL6PEC, Cisbio Inc., Bedford, Mass.) was added to each well. […] All samples were processed in duplicate. […] EC50 was determined using software generated by Dotmatics Limited (Windhill Bishops Stortford Herts, UK) using the Levenberg-Marquardt 4 parameter fitting procedure with finite different gradients.

Structure (SMILES)	EC50 [1] [nM]	EC50 [2] [nM]	EC50 (recombinant GSK3β kinase) [nM]	EC50 [3] [nM]	EC50 [4] [nM]	EC50 [5] [nM]	EC50 (IL-6) [nM]	inhibition at 10 µM [5] [%]	inhibition at 10 µM [4] [%]	inhibition at 10 µM (IL-6) [%]	inhibition at 10 µM [1] [%]
CC(C(=O)Nc1cc2cc(-c3cncs3)ccc2cn1)N1CCCC1 (centres unmarked) [Compound 758, 2-(Pyrrolidin-1-yl)-N-(6-(thiazol-5-yl)isoquinolin-3-yl)propanamide]	1250	24.3	50	384	1340	265	2870	–	–	–	–
O=C(CN1CCCCC1)Nc1cc2cc(-c3cncs3)ccc2cn1 [Compound 760, 2-(Piperidin-1-yl)-N-(6-(thiazol-5-yl)isoquinolin-3-yl)acetamide]	3970	3.8	133	1200	3280	765	1240	–	–	–	–
CN1CCN(CC(=O)Nc2cc3cc(-c4cncs4)ccc3cn2)CC1 [Compound 767, 2-(4-Methylpiperazin-1-yl)-N-(6-(thiazol-5-yl)isoquinolin-3-yl)acetamide]	3220	4.3	157	1000	9050	> 10000	3820	33.2	–	–	–
O=C(CN1CCOCC1)Nc1cc2cc(-c3cncs3)ccc2cn1 [Compound 773, 2-Morpholino-N-(6-(thiazol-5-yl)isoquinolin-3-yl)acetamide]	6550	3.8	219	2200	> 10000	> 10000	3480	30.3	48.4	–	–
Cn1ncc(-c2ccc3cnc(NC(=O)C(C)(C)F)cc3c2)c1CN1CCCCC1 [Compound 784, 2-Fluoro-2-methyl-N-(6-(1-methyl-5-(piperidin-1-ylmethyl)-1H-pyrazol-4-yl)isoquinolin-3-yl)propanamide]	5880	10.8	133	2200	> 10000	> 10000	> 10000	37.4	39.7	3.7	–
CCN(CC)CC(=O)Nc1cc2cc(-c3cnn(C)c3CN3CCCCC3)ccc2cn1 [Compound 785, 2-(Diethylamino)-N-(6-(1-methyl-5-(piperidin-1-ylmethyl)-1H-pyrazol-4-yl)isoquinolin-3-yl)acetamide]	2840	10.1	44	485	2860	1170	9150	–	–	–	–
Cn1ncc(-c2ccc3cnc(NC(=O)C4CC5(C4)CN(CCF)C5)cc3c2)c1CN1CCCCC1 [Compound 791, 2-(2-Fluoroethyl)-N-(6-(1-methyl-5-(piperidin-1-ylmethyl)-1H-pyrazol-4-yl)isoquinolin-3-yl)-2-azaspiro[3.3]heptane-6-carboxamide]	212	2.2	5	55	137	67	350	–	–	–	–
CO[C@H]1CC[C@H](C(=O)Nc2cc3cc(-c4cnn(C)c4CN4CCCCC4)ccc3cn2)CC1 [Compound 795, trans-4-Methoxy-N-(6-(1-methyl-5-(piperidin-1-ylmethyl)-1H-pyrazol-4-yl)isoquinolin-3-yl)cyclohexane-1-carboxamide]	471	2.4	33	401	806	227	1220	–	–	–	–
Cn1ncc(-c2ccc3cnc(NC(=O)[C@H]4CCCN4)cc3c2)c1CN1CCCCC1 [Compound 803, (R)—N-(6-(1-Methyl-5-(piperidin-1-ylmethyl)-1H-pyrazol-4-yl)isoquinolin-3-yl)pyrrolidine-2-carboxamide]	3550	12.6	164	3700	4530	> 10000	3320	27.8	–	–	–
CC(C)CN1CCC(C(=O)Nc2cc3cc(-c4cnn(C)c4CN4CCCCC4)ccc3cn2)CC1 [Compound 822, 1-isobutyl-N-(6-(1-methyl-5-(piperidin-1-ylmethyl)-1H-pyrazol-4-yl)isoquinolin-3-yl)piperidine-4-carboxamide]	517	4.1	9	247	708	212	3260	–	–	–	–
Cn1ncc(-c2ccc3cnc(NC(=O)C4CCN(C5COC5)CC4)cc3c2)c1CN1CCCCC1 [Compound 826, N-(6-(1-Methyl-5-(piperidin-1-ylmethyl)-1H-pyrazol-4-yl)isoquinolin-3-yl)-1-(oxetan-3-yl)piperidine-4-carboxamide]	603	3.9	7	568	897	149	3290	–	–	–	–
Cn1ncc(-c2ccc3cnc(NC(=O)C4CCN(C(=O)c5ccccc5)CC4)cc3c2)c1CN1CCCCC1 [Compound 831, 1-Benzoyl-N-(6-(1-methyl-5-(piperidin-1-ylmethyl)-1H-pyrazol-4-yl)isoquinolin-3-yl)piperidine-4-carboxamide]	706	3.2	10	189	911	244	812	–	–	–	–
CC1CCN(CC(=O)Nc2cc3cc(-c4cnn(C)c4CN4CCCCC4)ccc3cn2)CC1 [Compound 851, N-(6-(1-Methyl-5-(piperidin-1-ylmethyl)-1H-pyrazol-4-yl)isoquinolin-3-yl)-2-(4-methylpiperidin-1-yl)acetamide]	> 10000	5010	5000	350	> 10000	692	> 10000	–	30.4	2.9	6.4
Cc1nnc(-c2ccc3cnc(NC(=O)C4(F)CCCCC4)cc3c2)s1 [Compound 883, 1-Fluoro-N-(6-(5-methyl-1,3,4-thiadiazol-2-yl)isoquinolin-3-yl)cyclohexane-1-carboxamide]	> 10000	8.9	76	1100	> 10000	> 10000	> 10000	14	35.5	9.1	43.2
CO[C@H]1CC[C@H](C(=O)Nc2cc3cc(-c4nnc(C)s4)ccc3cn2)CC1 [Compound 885, trans-4-Methoxy-N-(6-(5-methyl-1,3,4-thiadiazol-2-yl)isoquinolin-3-yl) cyclohexane-1-carboxamide]	4480	34.6	46	878	7720	2620	> 10000	–	–	7	–
Cc1nnc(-c2ccc3cnc(NC(=O)C4CCN(CCF)CC4)cc3c2)s1 [Compound 900, 1-(2-Fluoroethyl)-N-(6-(5-methyl-1,3,4-thiadiazol-2-yl)isoquinolin-3-yl) piperidine-4-carboxamide]	1010	2.9	11	180	3880	449	9860	–	–	–	–
Cc1nnc(-c2ccc3cnc(NC(=O)C4CCN(C(=O)c5ccccc5)CC4)cc3c2)s1 [Compound 921, 1-Benzoyl-N-(6-(5-methyl-1,3,4-thiadiazol-2-yl)isoquinolin-3-yl)piperidine-4-carboxamide]	779	2.1	5	109	1620	75	> 10000	–	–	9.9	–
Cc1nnc(-c2ccc3cnc(NC(=O)CN4CCCC4)cc3c2)s1 [Compound 932, N-(6-(5-Methyl-1,3,4-thiadiazol-2-yl)isoquinolin-3-yl)-2-(pyrrolidin-1-yl) acetamide]	946	16.9	14	357	5450	594	> 10000	–	–	7.5	–
Cc1nnc(-c2ccc3cnc(NC(=O)CN4CCCCC4)cc3c2)s1 [Compound 939, N-(6-(5-Methyl-1,3,4-thiadiazol-2-yl)isoquinolin-3-yl)-2-(piperidin-1-yl) acetamide]	2070	13.9	13	274	> 10000	1140	> 10000	–	31.6	3.6	–
Cc1nnc(-c2ccc3cnc(NC(=O)CN4CCN(C)CC4)cc3c2)s1 [Compound 946, N-(6-(5-Methyl-1,3,4-thiadiazol-2-yl)isoquinolin-3-yl)-2-(4-methylpiperazin-1-yl)acetamide]	1880	23	38	571	> 10000	970	> 10000	–	42.6	18.2	–
